Measurements from patent US9556226B2, “Peptides with antifungal activity and methods of using the peptides” (THE BOARD OF TRUSTEES OF THE UNIVERSITY OF ARKANSAS, priority 2013, dated 2017).
Where two headings read alike, the source gives them in different places. Square brackets hold non-standard residues; d marks the D form. Peptide text beside a SMILES is read from it.

System: Candida albicans SC5314
Type: cell-based
Method: Killing assays. The fungicidal activity of the peptides toward Candida albicans was examined by microdilution plate assay as described previously (13). Briefly, from a fresh overnight cultured plate, a single colony was inoculated and diluted in 1 ml of 10 mM sodium phosphate buffer at pH 7.4. Once cell counts had been confirmed by using a hemocytometer, the cells diluted within the same buffer at 1.8×10^5 cells/mil. Cell suspensions of 20 μl were mixed with 20 μl of peptide, which were dissolved in 10 mM sodium phosphate buffer at pH 7.4, and then incubated for 2 hours at 37° C. with shaking at speeds of 550 rpm. The reactions were stopped by the addition of 360 μl yeast nitrogen base (YNB) and then 40 μl of cell suspension was spread onto plates and incubated for 24 hours at 37° C. Sabouraud dextrose agar plates were used for C. albicans killing assay. The number of colony-forming units (CFUs) was counted and each assay was repeated in triplicate. Loss of viability was calculated as [1-(colonies from suspension with peptide/colonies from suspension with no peptide)]×100. For the respiratory activity experiments, Candida albicans was grown in the presence of sodium azide or antimycin A (Sigma Aldrich) before the killing assay was performed.

Row | SMILES | Percent killing activity at 25 μM concentration (SC5314, 25) | further results
1 | CC(=O)N[C@@H](Cc1ccccc1)C(=O)N[C@@H](CCCCN)C(=O)N[C@@H](CCCNC(=N)N)C(=O)N[C@@H](CCCCN)C(=O)N[C@@H](Cc1ccc(O)cc1)C(N)=O [KM5, F-K-R-K-Y] (Ac-FKRKY-NH2) |  | Percent killing activity at 25 μM concentration (25 μM peptide, Candida albicans SC5314): 85%; LD50 (dose of peptide required to achieve 50% killing) (Candida albicans SC5314, 2 hours at 37° C., calculated using a linear regression equation): 5 µM
2 | CC(=O)N[C@H](Cc1ccccc1)C(=O)N[C@H](CCCCN)C(=O)N[C@H](CCCNC(=N)N)C(=O)N[C@H](CCCCN)C(=O)N[C@H](Cc1ccc(O)cc1)C(N)=O [KM6, dF-dK-dR-dK-dY] (Ac-[dF][dK][dR][dK][dY]-NH2) |  | antifungal activity relative to comparator peptides (in words) (Candida albicans SC5314): equivalent antifungal activity
3 | CC(=O)N[C@@H](Cc1ccccc1)C(=O)N[C@@H](CCCCN)C(=O)N1CCC[C@H]1C(=O)N[C@@H](CCCCN)C(=O)N[C@@H](Cc1ccc(O)cc1)C(N)=O [KM7, FKPKY] (Ac-FKPKY-NH2) | 3% | 
4 | CC(=O)N[C@@H](Cc1ccccc1)C(=O)N[C@@H](CCCCN)C(=O)N[C@@H](CO)C(=O)N[C@@H](CCCCN)C(=O)N[C@@H](Cc1ccc(O)cc1)C(N)=O [KM8, FKSKY] (Ac-FKSKY-NH2) | 0% | 
5 | CC(=O)N[C@@H](Cc1ccccc1)C(=O)N[C@@H](CCCCN)C(=O)N[C@@H](CCCNC(=N)N)C(=O)N[C@@H](CCCCN)C(=O)N[C@@H](Cc1ccccc1)C(N)=O [KM9, FKRKF] (Ac-FKRKF-NH2) | 70% | 
6 | CC(=O)N[C@@H](CCCCN)C(=O)N[C@@H](Cc1ccccc1)C(=O)N[C@@H](CCCNC(=N)N)C(=O)N[C@@H](Cc1ccc(O)cc1)C(=O)N[C@@H](CCCCN)C(N)=O [KM10, KFRYK] (Ac-KFRYK-NH2) | 55% | 
